Experimental data: US20100209508A1, “Substituted Phenylphosphates as Mutual Prodrugs of Steroids and ß-Agonists for the Treatment of Title Pulmonary Inflammation and Bronchoconstriction” (CORUS PHARMA, INC., priority 2005, published 2010)

Columns and labels:
[1] = system: TNF-α; experiment: TNF-α secretion (h) (PBMC); type: cell-based, human; settings: Homo sapiens, 24 h, read-out: TNF-α secretion IC50
[2] = system: splenic lymphocytes isolated from C57BL/6 mice and CBA mice; experiment: Immunosuppression ([3H]TMD incorporation in mouse splenic lymphocytes); type: cell-based; settings: Mus musculus, Splenic lymphocyte; read-out: Immunosuppresion IC50
[3] = system: cytokine release; experiment: Panel of standard cell-based in vitro assays evaluating cytokine release inhibition; settings: prodrugs compared to the steroid drugs (Examples 27 and 62, respectively)
Protocol: The selected compounds of the invention were tested in a panel of standard, cell-based in vitro assays evaluating the cytokine release inhibition and thus the anti-inflammatory activity of a test article. Several potent steroid analogs were identified, namely compounds described in Examples 23, 27, 43, 59 and 62. […] Therefore by masking the pharmacological properties of a respective steroid the mutual prodrug mitigates the oropharyngeal side effects and confines the antiinflammatory activity of a steroid to the endobronchial space, where the lung enzymes (specifically alkaline phosphatase) release the pharmacologically active steroid (see Examples 141-143).

[4] = system: alkaline phosphatase; experiment: Conversion of mutual prodrugs after exposure to alkaline phosphatase (ALP experiment); settings: for course in the reaction solution (with enzyme): alkaline phosphatase ~600 ng/μl, pH 7.4, 37° C., LCMS; for Prodrug 17 Concentration: mutual prodrug 17 + alkaline phosphatase; for Prodrug 16 Concentration: mutual prodrug 16 + alkaline phosphatase;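 for all read-outs here: mutual prodrug and its released products quantified by LCMS over time in buffer with alkaline phosphatase, compared against enzyme-free control buffer, incubations running 25–50 hours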
Protocol: Reaction and control solutions were prepared by adding a 500 μL aliquot of a ˜200 ng/μl solution in 1:1 acetonitrile/water of and the compound 16 (or alternatively 17) to 500 μl of a pH 7.4 buffer solution, containing 5 mM tris(hydroxymethyl)aminomethane, 1 mM ZnCl2, 1 mM MgCl2. For the reaction solutions, the buffer also contained approximately 600 ng/μl of alkaline phosphatase (Sigma-Aldrich) whereas the control buffer solutions contained no enzyme. The reaction and control solutions were incubated at 37° C. for 25 to 50 hours. The solutions were analyzed periodically for the respective mutual prodrug and reaction products by LCMS.
The concentration of the alkaline phosphatase in the reaction buffer was ˜600 ng/μL (the enzyme activity of the solution was not determined).
The concentration of the alkaline phosphatase in the buffer added to the stock solution was ˜600 ng/μl (the enzyme activity of the solution was not determined).

[5] = Control solution without enzyme (pH 7.4 buffer, 37° C.); type: physicochemical; settings: 25 to 50 hours, LCMS

## C[C@]12C=CC(=O)C=C1CCC1C3C[C@H]4OC(c5ccc[n+](Cc6ccc(C(O)CNCCCCCCOCCCCc7ccccc7)cc6OP(=O)(O)O)c5)O[C@@]4(C(=O)CO)[C@@]3(C)C[C@H](O)[C@@]12F (stereo partly drawn) [Example 133]
[1]
  IC50: > 1000 nM
[2]
  IC50: 180 nM
[3]
  anti-inflammatory activity (cytokine release inhibition), assessment in words: less active or inactive
[4]
  course in the reaction solution (with enzyme): disappearance of the mutual prodrug
[4]; 0.00 Hours @ 37° C.
  Prodrug 17 Concentration: 214.4 nmol/mL
[4]; 0.53 Hours @ 37° C.
  Prodrug 17 Concentration: 112.6 nmol/mL
[4]; 1.05 Hours @ 37° C.
  Prodrug 17 Concentration: 44.9 nmol/mL
[4]; 2.10 Hours @ 37° C.
  Prodrug 17 Concentration: 9.8 nmol/mL
[4]; 3.16 Hours @ 37° C.
  Prodrug 17 Concentration: 4.2 nmol/mL
[4]; 4.21 Hours @ 37° C.
  Prodrug 17 Concentration: 3.7 nmol/mL
[4]; 10.52 Hours @ 37° C.
  Prodrug 17 Concentration: 0.0 nmol/mL
[4]; 19.99 Hours @ 37° C.
  Prodrug 17 Concentration: 0.0 nmol/mL
[4]; 29.46 Hours @ 37° C.
  Prodrug 17 Concentration: 0.0 nmol/mL
[4]; 39.99 Hours @ 37° C.
  Prodrug 17 Concentration: 0.0 nmol/mL
[4]; 49.46 Hours @ 37° C.
  Prodrug 17 Concentration: 0.0 nmol/mL
[5]
  compounds detected in the control solution (without enzyme): Only the mutual prodrug 17 was detected

## C[C@]12C=CC(=O)C=C1CC[C@H]1[C@@H]3C[C@H]4O[C@@H](C5CCCCC5)O[C@@]4(C(=O)CN4CC[N+](C)(Cc5ccc(C(O)CNCCCCCCOCCCCc6ccccc6)cc5OP(=O)(O)O)CC4)[C@@]3(C)C[C@H](O)[C@@]12F (stereo partly drawn) [Example 107, Salmeterol-phosphate-16,17-[(Cyclohexylmethylene)bis(oxy)]-9-fluoro-11-hydroxy-21-(4-methylpiperazinium)-pregna-1,4-diene-3,20-dione[11β,16α(R)]]
[1]
  IC50: 810 nM
[2]
  IC50: 80 nM
[3]
  anti-inflammatory activity (cytokine release inhibition), assessment in words: less active or inactive
[4]
  course in the reaction solution (with enzyme): disappearance of the mutual prodrug 16
[4]; 0.00 Hours @ 37° C.
  Prodrug 16 Concentration: 91.0 nmol/mL
[4]; 0.59 Hours @ 37° C.
  Prodrug 16 Concentration: 87.7 nmol/mL
[4]; 1.19 Hours @ 37° C.
  Prodrug 16 Concentration: 78.6 nmol/mL
[4]; 2.96 Hours @ 37° C.
  Prodrug 16 Concentration: 67.8 nmol/mL
[4]; 3.56 Hours @ 37° C.
  Prodrug 16 Concentration: 62.3 nmol/mL
[4]; 4.15 Hours @ 37° C.
  Prodrug 16 Concentration: 61.6 nmol/mL
[4]; 10.67 Hours @ 37° C.
  Prodrug 16 Concentration: 43.1 nmol/mL
[4]; 15.41 Hours @ 37° C.
  Prodrug 16 Concentration: 36.7 nmol/mL
[4]; 19.56 Hours @ 37° C.
  Prodrug 16 Concentration: 33.1 nmol/mL
[4]; 24.30 Hours @ 37° C.
  Prodrug 16 Concentration: 29.3 nmol/mL
[4]; 30.82 Hours @ 37° C.
  Prodrug 16 Concentration: 24.8 nmol/mL
[4]; 34.97 Hours @ 37° C.
  Prodrug 16 Concentration: 23.0 nmol/mL
[5]
  compounds detected in the control solution (without enzyme): Only the mutual prodrug 16 was detected
